Reference: patent US20110152313A1 (MACQUARIE UNIVERSITY, priority 2008, published 2011)

Experiments:
Test in all cases: kinase binding screen (kinase-tagged T7 phage, qPCR), % Ctrl
[1] = molecular target: RPS6KA2(Kin.Dom.2-C-terminal) (Homo sapiens, UniProt Q15349)
Outline: (§1)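 Competition binding: kinase-tagged T7 phage (grown in BL21-derived E. coli, lysed at 32° C) incubated with immobilized ligand on biotin-blocked beads plus test compound; bound kinase in eluates quantified by qPCR. Compounds tested at a single set concentration, added from 40× DMSO stocks.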

CDK7 = CDK7 (Homo sapiens, UniProt P50613)
Chain of CDK7 (P50613 whole entry): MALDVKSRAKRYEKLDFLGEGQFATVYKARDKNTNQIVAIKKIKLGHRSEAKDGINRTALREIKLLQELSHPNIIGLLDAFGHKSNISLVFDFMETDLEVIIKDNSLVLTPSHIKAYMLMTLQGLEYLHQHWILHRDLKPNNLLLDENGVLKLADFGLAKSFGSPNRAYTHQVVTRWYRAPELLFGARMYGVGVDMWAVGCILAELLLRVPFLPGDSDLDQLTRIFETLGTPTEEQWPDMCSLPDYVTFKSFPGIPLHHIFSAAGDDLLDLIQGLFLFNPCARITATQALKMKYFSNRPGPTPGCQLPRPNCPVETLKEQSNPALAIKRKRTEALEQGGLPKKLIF
Outline: as §1

MAP3K15 = molecular target: T1, MAP3K15 (Homo sapiens, UniProt Q6ZN16)
T1 sequence (Q6ZN16 1-1313): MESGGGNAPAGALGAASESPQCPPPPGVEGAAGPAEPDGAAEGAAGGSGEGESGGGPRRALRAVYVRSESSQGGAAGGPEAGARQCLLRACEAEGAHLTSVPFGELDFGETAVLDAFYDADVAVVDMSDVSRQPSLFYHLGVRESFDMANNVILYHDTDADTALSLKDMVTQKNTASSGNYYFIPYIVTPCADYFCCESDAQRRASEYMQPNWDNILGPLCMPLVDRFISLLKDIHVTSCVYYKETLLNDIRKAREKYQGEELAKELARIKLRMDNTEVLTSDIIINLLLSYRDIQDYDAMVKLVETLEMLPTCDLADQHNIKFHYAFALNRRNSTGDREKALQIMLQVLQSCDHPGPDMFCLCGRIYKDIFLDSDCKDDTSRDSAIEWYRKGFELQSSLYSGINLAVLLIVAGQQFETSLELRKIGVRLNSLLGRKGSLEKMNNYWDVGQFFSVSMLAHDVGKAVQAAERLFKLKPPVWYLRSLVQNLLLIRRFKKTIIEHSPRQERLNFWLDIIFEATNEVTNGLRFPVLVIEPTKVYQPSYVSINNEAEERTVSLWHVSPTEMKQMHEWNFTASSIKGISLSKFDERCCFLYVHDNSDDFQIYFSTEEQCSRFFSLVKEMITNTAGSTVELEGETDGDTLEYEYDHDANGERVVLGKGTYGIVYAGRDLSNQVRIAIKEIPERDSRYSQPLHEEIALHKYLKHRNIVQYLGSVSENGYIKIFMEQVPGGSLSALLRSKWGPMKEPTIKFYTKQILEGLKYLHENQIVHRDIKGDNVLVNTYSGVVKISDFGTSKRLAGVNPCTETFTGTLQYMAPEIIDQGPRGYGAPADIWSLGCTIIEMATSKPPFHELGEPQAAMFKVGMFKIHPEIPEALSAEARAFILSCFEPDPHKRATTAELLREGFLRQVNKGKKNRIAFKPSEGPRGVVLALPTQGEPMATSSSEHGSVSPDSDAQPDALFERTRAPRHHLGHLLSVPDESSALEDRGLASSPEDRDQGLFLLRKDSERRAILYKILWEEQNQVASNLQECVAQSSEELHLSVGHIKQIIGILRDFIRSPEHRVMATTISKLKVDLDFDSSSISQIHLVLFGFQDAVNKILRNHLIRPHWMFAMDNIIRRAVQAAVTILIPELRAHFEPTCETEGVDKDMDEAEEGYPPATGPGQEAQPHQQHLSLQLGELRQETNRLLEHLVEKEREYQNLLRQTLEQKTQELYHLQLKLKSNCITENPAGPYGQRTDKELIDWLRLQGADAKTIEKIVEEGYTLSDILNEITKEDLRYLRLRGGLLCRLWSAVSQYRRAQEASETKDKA
Outline: as §1

PIM2 = PIM2 (Homo sapiens, UniProt Q9P1W9)
Chain of PIM2 (Q9P1W9 whole entry, species assumed): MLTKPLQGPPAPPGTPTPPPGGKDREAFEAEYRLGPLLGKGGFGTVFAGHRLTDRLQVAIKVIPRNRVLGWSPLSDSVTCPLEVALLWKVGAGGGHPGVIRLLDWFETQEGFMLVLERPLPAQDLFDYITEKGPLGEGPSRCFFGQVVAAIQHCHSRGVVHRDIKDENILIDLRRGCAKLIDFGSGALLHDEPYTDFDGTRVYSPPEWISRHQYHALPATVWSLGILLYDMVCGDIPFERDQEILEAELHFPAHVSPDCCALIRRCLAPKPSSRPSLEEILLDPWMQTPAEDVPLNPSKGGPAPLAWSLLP
Outline: as §1

TBK1 = molecular target: T2, TBK1 (Homo sapiens, UniProt Q9UHD2)
T2 sequence (Q9UHD2 1-729): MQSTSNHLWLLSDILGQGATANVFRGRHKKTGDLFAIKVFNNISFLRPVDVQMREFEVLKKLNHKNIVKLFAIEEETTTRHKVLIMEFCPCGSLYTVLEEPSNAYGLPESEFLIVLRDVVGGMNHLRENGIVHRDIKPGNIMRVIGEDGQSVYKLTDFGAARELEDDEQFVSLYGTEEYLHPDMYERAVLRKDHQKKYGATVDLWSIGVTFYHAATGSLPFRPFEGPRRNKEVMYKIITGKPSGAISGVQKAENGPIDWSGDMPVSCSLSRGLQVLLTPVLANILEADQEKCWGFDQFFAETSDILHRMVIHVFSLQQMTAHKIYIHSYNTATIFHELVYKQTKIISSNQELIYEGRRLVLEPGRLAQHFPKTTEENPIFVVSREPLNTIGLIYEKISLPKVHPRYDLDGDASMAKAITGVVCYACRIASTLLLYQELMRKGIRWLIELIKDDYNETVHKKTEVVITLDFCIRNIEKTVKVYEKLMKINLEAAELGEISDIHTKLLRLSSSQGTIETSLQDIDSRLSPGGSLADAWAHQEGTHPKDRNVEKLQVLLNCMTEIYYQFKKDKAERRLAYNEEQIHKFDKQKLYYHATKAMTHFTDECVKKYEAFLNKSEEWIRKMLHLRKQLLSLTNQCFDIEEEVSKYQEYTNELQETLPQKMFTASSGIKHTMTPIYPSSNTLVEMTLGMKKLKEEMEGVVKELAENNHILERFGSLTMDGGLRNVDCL
Outline: as §1

DYRK1A = DYRK1A (Homo sapiens, UniProt Q13627)
Outline: as §1

Chain of RPS6KA2(Kin.Dom.2-C-terminal) (Q15349 415-672 limits assumed, species assumed): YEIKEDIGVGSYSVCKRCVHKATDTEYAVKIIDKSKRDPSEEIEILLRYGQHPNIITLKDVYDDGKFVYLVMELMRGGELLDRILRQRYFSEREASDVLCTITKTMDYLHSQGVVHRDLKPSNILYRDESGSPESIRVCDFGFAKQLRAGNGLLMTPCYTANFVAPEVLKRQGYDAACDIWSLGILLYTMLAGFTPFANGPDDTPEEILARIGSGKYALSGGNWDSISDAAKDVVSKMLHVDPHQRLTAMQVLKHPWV

Nc1nc2c(-c3cnc4ccccc4c3)nccc2[nH]1 [drawing 36, 4-(quinolin-3-yl)-1H-imidazo[4,5-c]pyridin-2-amine]
remaining activity at 1 µM [1]: 100%
remaining activity at 1 µM (CDK7): 100%
remaining activity at 1 µM (MAP3K15): 94%
remaining activity at 1 µM (PIM2): 100%
remaining activity at 1 µM (TBK1): 79%
remaining activity at 1 µM (DYRK1A): 51%

Nc1nc2c(-c3ccccn3)nccc2[nH]1 [drawing 35, 4-(pyrid-2-yl)-1H-imidazo[4,5-c]pyridin-2-amine]
remaining activity at 1 µM [1]: 68%
remaining activity at 1 µM (CDK7): 30%
remaining activity at 1 µM (MAP3K15): 40%
remaining activity at 1 µM (PIM2): 100%
remaining activity at 1 µM (TBK1): 50%
remaining activity at 1 µM (DYRK1A): 36%

Nc1nc2c(-c3cc(Br)c(Br)[nH]3)nccc2[nH]1 [Ageladine A, ageladine A, reference compound]
remaining activity at 1 µM [1]: 42%
remaining activity at 10 µM ([1]; 10 μM): 25%
remaining activity at 1 µM (CDK7): 79%
remaining activity at 10 µM (CDK7; 10 μM): 66%
remaining activity at 1 µM (MAP3K15): 100%
remaining activity at 10 µM (MAP3K15; 10 μM): 78%
remaining activity at 1 µM (PIM2): 56%
remaining activity at 10 µM (PIM2; 10 μM): 21%
remaining activity at 1 µM (TBK1): 84%
remaining activity at 10 µM (TBK1; 10 μM): 78%
remaining activity at 1 µM (DYRK1A): 38%
remaining activity at 10 µM (DYRK1A; 10 μM): 4.7%
